{"source": "patent US20250134899A1", "about": "“COMBINATION THERAPIES OF WDR5 INHIBITORS AND PD-1 INHIBITORS” (HUYABIO International, LLC, priority 2023, published 2025)", "tested_on": "GL261-Luc cells (syngeneic orthotopic gliomas)", "assay": "GL261-luc intracranial orthotopic syngeneic brain (glioma) model, survival", "type": "in vivo, C57BL/6J mice", "procedure": "Female C57BL/6J mice (Beijing VR Laboratory Animal Co., LTD; 6 to 8 weeks old, approximately 18-22 g) were used for intracranial […] orthotopic glioma experiment. To establish syngeneic orthotopic gliomas, 200,000 GL261-Luc cells were stereotactically injected in a 3-μL volume of PBS mixed with 20% Matrigel into the left striatum over 1 minute, 3 mm deep from the cortical surface. Tumor burden was monitored by bioluminescence signal with IVIS imaging by injection 1.5 mg of luciferin per animal prior to imaging. On day 7 after implantation the mice were randomly allocated into treatment arms based on tumor radiance, so that the average tumor radiance in each group was approximately 8.50E+06 photon/sec (Day 0). Animals were treated for 28 days with HBI-2375 (80 mg/kg QD PO), Anti-PD-1 (RMP1-14) antibody (10 mg/kg BIW IP) and/or whole body radiation therapy (2 Gy/day×5 days) in monotherapy, doublet or triplet therapy and as described in the protocol.\nThe tumor take rate was 100%. Each arm had 10 mice in survival experiments. Study was terminated on Day 85.", "data": [{"smiles": "Cc1c(F)c(N)cc(C(=O)Nc2cc(-n3cc(C(=O)N4CCN(C)CC4)nn3)c(F)cc2N2C[C@@H](C)N(C)[C@@H](C)C2)c1Cl", "note": "[HBI-2375, 5-amino-2-chloro-4-fluoro-N-(4-fluoro-5-(4-(4-methylpiperazine-1-carbonyl)-1H-1,2,3-triazol-1-yl)-2-((3S,5R)-3,4,5-trimethylpiperazin-1-yl)phenyl)-3-methylbenzamide]", "values": [{"measurement": "% Survival at Day 85", "setting": "Day 85, same dosing", "result": 10, "unit": "%"}, {"measurement": "Median Survival", "setting": "GL261-Luc intracranial, 10 mice per arm, treated 28 days, HBI-2375 80 mg/kg QD PO, anti-PD-1 10 mg/kg BIW IP, radiation 2 Gy/day x 5 days, study terminated Day 85", "result": 17.5, "unit": "days"}, {"measurement": "survival (in words)", "setting": "in combination with Anti-PD-1 and Radiation, FIG. 1 legend", "result": "increases survival"}, {"measurement": "Survival at Day 85", "setting": "surviving mice / mice per arm at Day 85, same dosing", "result": "1/10"}]}]}
